According to EPA's ToxRefDB 2:

Legend:
[1] = system: mouse; conditions: Subchronic oral toxicity in rodents, cd1, Water, dose end: 90 day, group: systemic, systemic / hematology / leukocyte (wbc) count differential / leukocyte (wbc)
[2] = system: mouse; conditions: Carcinogenicity, b6c3f1, Oral, Feed, dose end: 2 year, group: systemic
[3] = system: rat; conditions: Carcinogenicity, fischer, Oral, Feed, dose end: 2 year, group: systemic
[4] = system: rat; conditions: Subchronic oral toxicity in rodents, fischer, Feed, dose end: 13 week, group: systemic
[5] = system: rat; conditions: Multigenerational reproductive toxicity study, wistar, Oral, Feed, dose end: 2 generation
[6] = system: rat; conditions: Prenatal developmental toxicity study, fischer, Oral, Gavage/Intubation, dose end: 15 GD
[7] = system: mouse; conditions: Subchronic oral toxicity in rodents, b6c3f1, Feed, dose end: 13 week, group: systemic
[8] = system: rat; conditions: Subchronic oral toxicity in rodents, sprague dawley, Feed, dose end: 90 day, group: systemic
[9] = system: mouse; conditions: Subchronic oral toxicity in rodents, cd1, Feed, dose end: 13 week, group: systemic
[10] = system: dog; conditions: Chronic toxicity, beagle, Oral, Feed, dose end: 12 month, group: systemic
[11] = system: rat; conditions: Subchronic oral toxicity in rodents, fischer, Feed, dose end: 13 week, group: systemic; remark: listed apart in the source
[12] = system: dog; conditions: Subchronic oral toxicity in nonrodent, beagle, Feed, dose end: 13 week, group: systemic
[13] = system: mouse; conditions: Subchronic oral toxicity in rodents, cd1, Feed, dose end: 90 day, group: systemic
[14] = system: rat; conditions: Combined chronic toxicity/carcinogenicity; fischer; Oral; Feed; dose end: 104 week; group: systemic; systemic / pathology microscopic / kidney / hemosiderosis
[15] = system: mouse; conditions: Subchronic oral toxicity in rodents, cd1, Feed, dose end: 13 week, group: systemic; remark: listed apart in the source
[16] = system: rat; conditions: Subchronic inhalation toxicity, wistar, Whole-Body, dose end: 13 week, group: systemic, systemic / pathology microscopic / lung / alveolar macrophages + systemic / pathology microscopic / lung / fibrosis + systemic / pathology …
[17] = system: rat; conditions: Subchronic inhalation toxicity, wistar, Whole-Body, dose end: 13 week, group: systemic
[18] = system: rat; conditions: Subchronic inhalation toxicity, wistar, Whole-Body, dose end: 13 week, group: systemic, systemic / pathology microscopic / lung / alveolar macrophages + systemic / in life observation / body weight / body weight
[19] = system: rat; conditions: Subchronic inhalation toxicity, wistar, Whole-Body, dose end: 13 week, group: systemic, systemic / clinical chemistry / alanine aminotransferase (alt/sgpt) / alanine aminotransferase (alt/sgpt) + systemic / clinical chemistry / …
[20] = system: rabbit; conditions: Prenatal developmental toxicity study, Injection, Intravenous, dose end: 18 GD
[21] = system: rabbit; conditions: Sub-acute repeat dose toxicity; Injection; Intravenous; dose end: 5 day; group: systemic; systemic / in life observation / clinical signs / altered breathing rate + systemic / in life observation / clinical signs / labored …
[22] = system: rat; conditions: Sub-acute repeat dose toxicity, Injection, Intravenous, dose end: 5 day, group: systemic
[23] = systemic / in life observation / body weight / body weight
[24] = systemic / in life observation / body weight / body weight + systemic / in life observation / food consumption / food consumption
[25] = systemic / in life observation / food consumption / food consumption
[26] = systemic / in life observation / body weight / body weight + systemic / pathology microscopic / bone marrow / atrophy + systemic / in life …
[27] = group: offspring, systemic / pathology gross / mammary gland / discolored + systemic / pathology gross / mammary gland / enlarged
[28] = group: parental, systemic / in life observation / clinical signs / body surface staining + systemic / in life observation / body weight / body weight + …
[29] = group: parental, systemic / organ weight / pituitary gland / absolute + systemic / organ weight / pituitary gland / relative to body weight
[30] = group: reproductive, reproductive / reproductive performance / implantations / implantations
[31] = group: developmental, developmental / developmental malformation / bone / delayed ossification + developmental / developmental malformation / bone / unossified + …
[32] = group: maternal, systemic / in life observation / body weight / body weight + systemic / in life observation / body weight / body weight gain + systemic / in…
[33] = group: maternal, systemic / in life observation / body weight / body weight gain + systemic / in life observation / clinical signs / urogenital staining
[34] = systemic / pathology microscopic / liver / necrosis
[35] = systemic / in life observation / body weight / body weight + systemic / in life observation / body weight / body weight gain + systemic / in…
[36] = systemic / organ weight / kidney / absolute + systemic / organ weight / liver / absolute + systemic / organ weight / liver / relative to …
[37] = systemic / pathology gross / gallbladder / [other] + systemic / pathology gross / gallbladder / distended + systemic / pathology microscopic…
[38] = systemic / clinical chemistry / albumin / albumin
[39] = systemic / clinical chemistry / potassium / potassium
[40] = systemic / organ weight / thymus / absolute + systemic / organ weight / thymus / relative to body weight + systemic / pathology gross / …
[41] = systemic / organ weight / kidney / absolute + systemic / organ weight / kidney / relative to body weight + systemic / pathology microscopic…
[42] = systemic / pathology microscopic / lung / alveolar macrophages + systemic / pathology microscopic / lung / cholesterol cleft(s) + systemic…
[43] = group: developmental, developmental / developmental malformation / bone / incomplete ossification + systemic / in life observation / body weight / fetal weight
[44] = systemic / pathology microscopic / ovary / degeneration + systemic / clinical chemistry / albumin / albumin + systemic / clinical chemistry…

SMILES: Oc1ccc(Cl)cc1Cl [2,4-Dichlorophenol]
- LEL [1]: 383 mg/kg/day
- LOAEL [1]: > 383 mg/kg/day
- NEL [1]: 114 mg/kg/day
- NOAEL [1]: ≥ 383 mg/kg/day
- LOAEL [2, 23]: 430 mg/kg/day
- NOAEL [2, 23]: < 430 mg/kg/day
- LEL [2, 24]: 430 mg/kg/day
- NEL [2, 24]: < 430 mg/kg/day
- LEL [3, 25]: 120 mg/kg/day
- NEL [3, 25]: < 120 mg/kg/day
- LOAEL ([3]; systemic / pathology microscopic / nose / degeneration): 210 mg/kg/day
- LOAEL ([4]; systemic / in life observation / body weight / body weight + systemic / pathology microscopic / bone marrow / atrophy): 1000 mg/kg/day
- NEL [4, 26]: 250 mg/kg/day
- NOAEL [4, 26]: 500 mg/kg/day
- LEL ([4]; systemic / pathology microscopic / bone marrow / atrophy): 500 mg/kg/day
- LOAEL ([5]; group: offspring, developmental / developmental malformation / eye / open eye + systemic / in life observation / body weight / offspring (pup) weight): 543 mg/kg/day
- NOAEL ([5]; group: offspring, developmental / developmental malformation / eye / open eye + systemic / in life observation / body weight / offspring (pup) weight + …): 134 mg/kg/day
- LEL [5, 27]: 49.1 mg/kg/day
- NEL [5, 27]: < 49.1 mg/kg/day
- LOAEL [5, 28]: 543 mg/kg/day
- NOAEL [5, 28]: 134 mg/kg/day
- LEL [5, 29]: 33.4 mg/kg/day
- NEL [5, 29]: < 33.4 mg/kg/day
- LEL [5, 30]: 768 mg/kg/day
- LOAEL [5, 30]: 768 mg/kg/day
- NEL [5, 30]: 194 mg/kg/day
- NOAEL [5, 30]: 194 mg/kg/day
- LEL [6, 31]: 750 mg/kg/day
- LOAEL [6, 31]: > 750 mg/kg/day
- NEL [6, 31]: 375 mg/kg/day
- NOAEL [6, 31]: ≥ 750 mg/kg/day
- LOAEL [6, 32]: > 750 mg/kg/day
- NOAEL [6, 32]: ≥ 750 mg/kg/day
- LEL [6, 33]: 200 mg/kg/day
- NEL [6, 33]: < 200 mg/kg/day
- NOAEL ([7]; systemic / in life observation / body weight / body weight + systemic / in life observation / clinical signs / fur (altered appearance) + …): 1500 mg/kg/day
- LOAEL ([7]; systemic / in life observation / body weight / body weight + systemic / pathology microscopic / liver / necrosis + systemic / pathology …): 3000 mg/kg/day
- LEL [7, 34]: 375 mg/kg/day
- NEL [7, 34]: < 375 mg/kg/day

SMILES: CCCCOC(=O)[C@@H](C)Oc1ccc(Oc2ccc(C#N)cc2F)cc1 [Cyhalofop-butyl]
- LOAEL [8, 35]: 800 mg/kg/day
- NOAEL [8, 35]: 400 mg/kg/day
- LEL ([8]; systemic / organ weight / liver / absolute + systemic / organ weight / liver / relative to body weight + systemic / pathology gross / liver…): 25 mg/kg/day
- LOAEL [9, 36]: > 350 mg/kg/day
- NOAEL [9, 36]: ≥ 350 mg/kg/day
- LEL ([9]; systemic / pathology gross / liver / foci): 3 mg/kg/day
- NEL ([9]; systemic / pathology gross / liver / foci + systemic / clinical chemistry / alkaline phosphatase (alp/alk) / alkaline phosphatase (alp/alk…): 1 mg/kg/day
- LEL ([10]; systemic / in life observation / body weight / body weight + systemic / in life observation / body weight / body weight gain): 7.59 mg/kg/day
- NEL ([10]; systemic / in life observation / body weight / body weight + systemic / in life observation / body weight / body weight gain + systemic / …): 1.22 mg/kg/day
- LOAEL [10, 37]: > 45.9 mg/kg/day
- NOAEL [10, 37]: ≥ 45.9 mg/kg/day
- LEL [11, 38]: 1.72 mg/kg/day
- NEL [11, 38]: < 1.72 mg/kg/day
- NOAEL ([11]; systemic / clinical chemistry / albumin / albumin + systemic / pathology microscopic / kidney / [other] + systemic / pathology microscopic…): 60.5 mg/kg/day
- LOAEL ([11]; systemic / pathology microscopic / kidney / [other] + systemic / pathology microscopic / kidney / pigmentation + systemic / pathology …): 190 mg/kg/day
- LEL [12, 39]: 3.17 mg/kg/day
- NEL [12, 39]: < 3.17 mg/kg/day
- LOAEL [12, 40]: 75.2 mg/kg/day
- NOAEL [12, 40]: 14.7 mg/kg/day
- LEL ([13]; systemic / organ weight / liver / absolute): 3.6 mg/kg/day
- NEL ([13]; systemic / organ weight / liver / absolute + systemic / in life observation / clinical signs / alopecia + systemic / organ weight / liver / …): 0.4 mg/kg/day
- LOAEL ([13]; systemic / pathology gross / kidney / enlarged + systemic / pathology microscopic / kidney / hypertrophy): 14.1 mg/kg/day
- NOAEL ([13]; systemic / pathology gross / kidney / enlarged + systemic / pathology microscopic / kidney / hypertrophy + systemic / organ weight / kidney…): 4.3 mg/kg/day
- LEL [14]: 3.44 mg/kg/day
- LOAEL [14]: 3.44 mg/kg/day
- NEL [14]: 0.823 mg/kg/day
- NOAEL [14]: 0.823 mg/kg/day
- LOAEL [15, 41]: 30 mg/kg/day
- NOAEL [15, 41]: 10 mg/kg/day
- LEL ([15]; systemic / organ weight / liver / relative to body weight): 3 mg/kg/day
- NEL ([15]; systemic / pathology microscopic / liver / inflammation + systemic / pathology microscopic / liver / necrosis + systemic / organ weight / …): 1 mg/kg/day

SMILES: O=[Si]=O [Silica]
- LEL [16]: 0.03 ppm
- LOAEL [16]: > 0.03 ppm
- NEL [16]: < 0.03 ppm
- NOAEL [16]: ≥ 0.03 ppm
- LOAEL [17, 42]: > 0.03 ppm
- NOAEL [17, 42]: ≥ 0.03 ppm
- LEL ([17]; systemic / pathology microscopic / lung / proliferation): 0.001 ppm
- LEL [18]: 0.03 ppm
- LOAEL [18]: > 0.03 ppm
- NEL [18]: < 0.03 ppm
- NOAEL [18]: ≥ 0.03 ppm
- LEL [19]: 0.06 ppm
- LOAEL [19]: > 0.06 ppm
- NEL [19]: < 0.06 ppm
- NOAEL [19]: ≥ 0.06 ppm

SMILES: NC(N)=NC(=O)c1cnn(-c2cccc3ncccc23)c1C1CC1 [Zoniporide]
- LEL [20, 43]: 100 mg/kg/day
- LOAEL [20, 43]: > 100 mg/kg/day
- NOAEL [20, 43]: ≥ 100 mg/kg/day
- LEL [20, 32]: 100 mg/kg/day
- LOAEL [20, 32]: > 100 mg/kg/day
- NEL [20, 32]: 30 mg/kg/day
- NOAEL [20, 32]: ≥ 100 mg/kg/day
- LOAEL [21]: > 250 mg/kg/day
- NEL [21]: 50 mg/kg/day
- NOAEL [21]: ≥ 250 mg/kg/day
- NEL ([22]; systemic / pathology microscopic / blood vessel / inflammation + systemic / pathology microscopic / blood vessel / necrosis): < 25 mg/kg/day
- LOAEL [22, 44]: > 250 mg/kg/day
- NOAEL [22, 44]: ≥ 250 mg/kg/day
